The experiment concerns the target T1, human HAQ STING isoform (hSTING HAQ) (Homo sapiens, UniProt Q86WV6, G230A/H232R/R293Q/R71H).
T1 construct: THP1 cells express the naturally occurring human HAQ STING isoform (hSTING HAQ); host or cells: THP1
The experiment can be described thus: IFN-β mRNA level in THP1 cells (qPCR, STING agonist cellular activity). It counts as cell-based. Conditions: compound at 3.6 μM, 2 hrs, IFNβ expression normalized against GAPDH by the 2^-ΔΔCT method, DMSO = 1.0. The protocol:
Cellular activity of STING agonists was determined by mRNA levels of IFN-β in THP1 (Otwo Biotech HTX1621) cell line. THP1 cells express the naturally occurring human HAQ STING isoform (hSTING HAQ), which responses to the activation of STING agonists.
THP1 cells were seeded into Falcon 12-well cell Culture Plate (Corning #353043) at 9×10^5 cells per well, in 1 ml complete culture medium (RPMI-1640, GIBCO #C1187500BT) containing 10% heat inactivated FBS (GIBCO #10099141C), 1% Pen-Strep (HyClone SV30010) and incubated at 37° ΔC, 5% CO2 overnight. On day 2, compound (final concentration at 3.6 μM) or DMSO (0.1%, Sigma Aldrich #8418) was added to THP1 cells and further incubated for 2 hrs min at 37° ΔC, 5% CO2. Cells were then collected for RNA extraction.
Total RNA was extracted with TRIzol reagent (Invitrogen #15596026) and […] was used to synthesize first-strand cDNA with Maxima First Strand cDNA Synthesis Kit (TAKARA #RR036A). Quantitative PCR was performed with Maxima SYBR Green qPCR Master Mix (ABI #4367659, USA). The primer sequences used were as follows: GAPDH (5′-[…]-3′, 5′-[…]-3′). INFP3 (5′-[…]-3′,5′-[…]-3′) Real-time PCR was performed on QuantStudio™ 5 Real-Time PCR System (Thermo Fisher). Relative expression levels of IFNβ gene were normalized against the level of GAPDH expression by the 2^−ΔΔCT method. Each PCR reaction was performed in triplicates.
Background: In qPCR the cycle at which signal appears reflects the starting amount.
T1 sequence (Q86WV6 whole entry R71H/G230A/H232R/R293Q, canonical isoform): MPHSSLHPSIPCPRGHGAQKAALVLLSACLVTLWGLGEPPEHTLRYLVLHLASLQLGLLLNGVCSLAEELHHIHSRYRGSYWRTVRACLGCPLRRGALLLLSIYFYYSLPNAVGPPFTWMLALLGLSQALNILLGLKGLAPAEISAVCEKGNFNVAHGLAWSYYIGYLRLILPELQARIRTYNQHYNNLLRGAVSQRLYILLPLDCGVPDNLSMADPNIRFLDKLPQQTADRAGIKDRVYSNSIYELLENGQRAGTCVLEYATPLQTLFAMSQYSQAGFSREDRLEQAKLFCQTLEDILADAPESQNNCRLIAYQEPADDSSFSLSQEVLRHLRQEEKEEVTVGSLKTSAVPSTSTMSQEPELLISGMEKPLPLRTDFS
As to `CC1COc2c(F)c(F)cc3c(=O)c(CN(Cc4ccncc4)[C@H]4CCCN(c5ccc(N)nc5)C4)cn1c23` (stereo partly drawn) [Compound 2, 6-((((S)-1-(6-aminopyridin-3-yl)piperidin-3-yl)(pyridin-4-ylmethyl)amino)methyl)-9,10-difluoro-3-methyl-2H-[1,4]oxazino[2,3,4-ij]quinolin-7(3H)-one], the “Relative mRNA INFβ/GAPDH THP 1” value came out at 1261.9. As to `Cc1cc(CN(Cc2cn3c4c(c(F)c(F)cc4c2=O)OCC3C)[C@H]2CCCN(c3ccc(N)nc3)C2)ccn1` (stereo partly drawn) [Compound 3, 6-((((S)-1-(6-aminopyridin-3-yl)piperidin-3-yl)((2-methylpyridin-4-yl)methyl)amino)methyl)-9,10-difluoro-3-methyl-2H-[1,4]oxazino[2,3,4-ij]quinolin-7(3H)-one], the “Relative mRNA INFβ/GAPDH THP 1” value is reported as 1356.3. Consider `COc1cc(CN(Cc2cn3c4c(c(F)c(F)cc4c2=O)OCC3C)[C@H]2CCCN(c3ccc(N)nc3)C2)c(Cl)cn1` (stereo partly drawn) [Compound 4, 6-((((S)-1-(6-aminopyridin-3-yl)piperidin-3-yl)((5-chloro-2-methoxypyridin-4-yl)methyl)amino)methyl)-9,10-difluoro-3-methyl-2H-[1,4]oxazino[2,3,4-ij]quinolin-7(3H)-one], for which the “Relative mRNA INFβ/GAPDH THP 1” value came out at 587.4.

In the case of `COc1cc(CN(Cc2cn3c4c(c(F)c(F)cc4c2=O)OC[C@H]3C)[C@H]2CCCN(c3ccc(N)nc3)C2)ccn1` [Compound 5, (R)-6-((((S)-1-(6-aminopyridin-3-yl)piperidin-3-yl)((2-methoxypyridin-4-yl)methyl)amino)methyl)-9,10-difluoro-3-methyl-2H-[1,4]oxazino[2,3,4-ij]quinolin-7(3H)-one], the “Relative mRNA INFβ/GAPDH THP 1” value came to 1627.5. Then `COc1cc(CN(Cc2cn3c4c(c(F)c(F)cc4c2=O)OC[C@@H]3C)[C@H]2CCCN(c3ccc(N)nc3)C2)ccn1` [Compound 6, (S)-6-((((S)-1-(6-aminopyridin-3-yl)piperidin-3-yl)((2-methoxypyridin-4-yl)methyl)amino)methyl)-9,10-difluoro-3-methyl-2H-[1,4]oxazino[2,3,4-ij]quinolin-7(3H)-one], with 1595.2.

Consider `COc1cc(CN(Cc2cn3c4c(c(F)c(F)cc4c2=O)OCC3C)[C@H]2CCCN(c3ccc(NC(C)=O)nc3)C2)ccn1` (stereo partly drawn) [Compound 7, N-(5-((3S)-3-(((9,10-difluoro-3-methyl-7-oxo-3,7-dihydro-2H-[1,4]oxazino[2,3,4-ij]quinolin-6-yl)methyl)((2-methoxypyridin-4-yl)methyl)amino)piperidin-1-yl)pyridin-2-yl)acetamide], for which the “Relative mRNA INFβ/GAPDH THP 1” value came out at 65.3.

Turning to `COc1cc(CCN(Cc2cn3c4c(c(F)c(F)cc4c2=O)OCC3C)[C@H]2CCCN(c3ccc(N)nc3)C2)ccn1` (stereo partly drawn) [Compound 8, 6-((((S)-1-(6-aminopyridin-3-yl)piperidin-3-yl)(2-(2-methoxypyridin-4-yl)ethyl)amino)methyl)-9,10-difluoro-3-methyl-2H-[1,4]oxazino[2,3,4-ij]quinolin-7(3H)-one], the “Relative mRNA INFβ/GAPDH THP 1” value is 5.7. In the case of `Cc1ccc(N2CCC[C@H](N(Cc3ccnc(C)c3)Cc3cn4c5c(c(F)c(F)cc5c3=O)OCC4C)C2)cn1` (stereo partly drawn) [Compound 9, 9,10-difluoro-3-methyl-6-((((S)-1-(6-methylpyridin-3-yl)piperidin-3-yl)((2-methylpyridin-4-yl)methyl)amino)methyl)-2H-[1,4]oxazino[2,3,4-ij]quinolin-7(3H)-one], the “Relative mRNA INFβ/GAPDH THP 1” value was 332.6.

Consider `Cc1cc(CN(Cc2cn3c4c(c(F)c(F)cc4c2=O)OCC3C)[C@H]2CCCN(c3cccnc3)C2)ccn1` (stereo partly drawn) [Compound 10, 9,10-difluoro-3-methyl-6-((((2-methylpyridin-4-yl)methyl)((S)-1-(pyridin-3-yl)piperidin-3-yl)amino)methyl)-2H-[1,4]oxazino[2,3,4-ij]quinolin-7(3H)-one], for which the “Relative mRNA INFβ/GAPDH THP 1” value was 336.8. Consider `Cc1ccc(N2CCC[C@H](N(Cc3ccnc(N)c3)Cc3cn4c5c(c(F)c(F)cc5c3=O)OCC4C)C2)cn1` (stereo partly drawn) [Compound 11, 6-((((2-aminopyridin-4-yl)methyl)((S)-1-(6-methylpyridin-3-yl)piperidin-3-yl)amino)methyl)-9,10-difluoro-3-methyl-2H-[1,4]oxazino[2,3,4-ij]quinolin-7(3H)-one], for which the “Relative mRNA INFβ/GAPDH THP 1” value is recorded as 65.6.

`Cc1cc(CN(Cc2cn3c4c(c(F)c(F)cc4c2=O)OCC3C)[C@H]2CCCN(c3ccc(C#N)nc3)C2)ccn1` (stereo partly drawn) [Compound 12, 5-((3S)-3-(((9,10-difluoro-3-methyl-7-oxo-3,7-dihydro-2H-[1,4]oxazino[2,3,4-ij]quinolin-6-yl)methyl)((2-methylpyridin-4-yl)methyl)amino)piperidin-1-yl)picolinonitrile]: the “Relative mRNA INFβ/GAPDH THP 1” value is listed as 14.1. As to `Cc1cc(CN(Cc2cn3c4c(c(F)c(F)cc4c2=O)OCC3C)[C@H]2CCCN(c3ccc(C(N)=O)nc3)C2)ccn1` (stereo partly drawn) [Compound 13, 5-((3S)-3-(((9,10-difluoro-3-methyl-7-oxo-3,7-dihydro-2H-[1,4]oxazino[2,3,4-ij]quinolin-6-yl)methyl)((2-methylpyridin-4-yl)methyl)amino)piperidin-1-yl)picolinamide], the “Relative mRNA INFβ/GAPDH THP 1” value came out at 3.6. Consider `Cc1cc(CN(Cc2cn3c4c(c(F)c(F)cc4c2=O)OCC3C)[C@H]2CCCN(c3cnccn3)C2)ccn1` (stereo partly drawn) [Compound 14, 9,10-difluoro-3-methyl-6-((((2-methylpyridin-4-yl)methyl)((S)-1-(pyrazin-2-yl)piperidin-3-yl)amino)methyl)-2H-[1,4]oxazino[2,3,4-ij]quinolin-7(3H)-one], for which the “Relative mRNA INFβ/GAPDH THP 1” value is 3848.9.

For `COc1cc(CN(Cc2cn3c4c(c(F)c(F)cc4c2=O)OCC3C)[C@H]2CCN(c3ccc(N)nc3)C2)ccn1` (stereo partly drawn) [Compound 15, 6-((((S)-1-(6-aminopyridin-3-yl)pyrrolidin-3-yl)((2-methoxypyridin-4-yl)methyl)amino)methyl)-9,10-difluoro-3-methyl-2H-[1,4]oxazino[2,3,4-ij]quinolin-7(3H)-one], the “Relative mRNA INFβ/GAPDH THP 1” value is 5.8. The result for `CNc1ccc(N2CCC[C@H](N(Cc3ccnc(OC)c3)Cc3cn4c5c(c(F)c(F)cc5c3=O)OCC4C)C2)cn1` (stereo partly drawn) [Compound 16, 9,10-difluoro-6-((((2-methoxypyridin-4-yl)methyl)((S)-1-(6-(methylamino)pyridin-3-yl)piperidin-3-yl)amino)methyl)-3-methyl-2H-[1,4]oxazino[2,3,4-ij]quinolin-7(3H)-one] reads 114.6; that for `COc1cc(CN(Cc2cn3c4c(c(F)c(F)cc4c2=O)OCC3C)[C@H]2CCCN(c3ccc(N4CCCC4)nc3)C2)ccn1` (stereo partly drawn) [Compound 17, 9,10-difluoro-6-((((2-methoxypyridin-4-yl)methyl)((S)-1-(6-(pyrrolidin-1-yl)pyridin-3-yl)piperidin-3-yl)amino)methyl)-3-methyl-2H-[1,4]oxazino[2,3,4-ij]quinolin-7(3H)-one], 6.7.

On to `COc1cc(CN(Cc2cn3c4c(c(F)c(F)cc4c2=O)OCC3C)[C@H]2CCCN(c3ccc(N4CCCC4=O)nc3)C2)ccn1` (stereo partly drawn) [Compound 18, 9,10-difluoro-6-((((2-methoxypyridin-4-yl)methyl)((S)-1-(6-(2-oxopyrrolidin-1-yl)pyridin-3-yl)piperidin-3-yl)amino)methyl)-3-methyl-2H-[1,4]oxazino[2,3,4-ij]quinolin-7(3H)-one], for which the “Relative mRNA INFβ/GAPDH THP 1” value came out at 4.8. On to `COc1cc(CN(Cc2cn3c4c(c(F)c(F)cc4c2=O)OCC3C)[C@H]2CCCN(c3ccc(N(C)C)nc3)C2)ccn1` (stereo partly drawn) [Compound 19, 11-[[[(3S)-1-[6-(dimethylamino)-3-pyridyl]-3-piperidyl]-[(2-methoxy-4-pyridyl)methyl]amino]methyl]-6,7-difluoro-2-methyl-4-oxa-1-azatricyclo[7.3.1.05,13]trideca-5(13),6,8,11-tetraen-10-one], for which the “Relative mRNA INFβ/GAPDH THP 1” value amounted to 2625.9. Then `COc1cc(CN(Cc2cn3c4c(c(F)c(F)cc4c2=O)OCC3C)[C@H]2CCCN(c3ccc(NCC4CC4)nc3)C2)ccn1` (stereo partly drawn) [Compound 20, 11-[[[(3S)-1-[6-(cyclopropylmethylamino)-3-pyridyl]-3-piperidyl]-[(2-methoxy-4-pyridyl)methyl]amino]methyl]-6,7-difluoro-2-methyl-4-oxa-1-azatricyclo[7.3.1.0^5,13]trideca-5(13),6,8,11-tetraen-10-one], with 2142.1; and `COc1cc(CN(Cc2cn3c4c(c(F)c(F)cc4c2=O)OCC3C)[C@H]2CCCN(c3ccc(N(C)C4CC4)nc3)C2)ccn1` (stereo partly drawn) [Compound 21, 11-[[[(3S)-1-[6-[cyclopropyl(methyl)amino]-3-pyridyl]-3-piperidyl]-[(2-methoxy-4-pyridyl)methyl]amino]methyl]-6,7-difluoro-2-methyl-4-oxa-1-azatricyclo[7.3.1.0^5,13]trideca-5(13),6,8,11-tetraen-10-one], with 114.6.

The values are drawn from patent US20250171461A1, “STIMULATOR OF INTERFERON GENES (STING) MODULATORS, AND COMPOSITIONS AND METHODS THEREOF” (Geode Therapeutics Inc., priority 2022, published 2025).
